Experiments:
HUVECs = assay: Nitric oxide production in endothelial cells (DAF2-DA fluorescence); format: cell-based, human; settings: 24 hours incubation
Method: c. HGF and compounds of the invention stimulate nitric oxide production in endothelial cells. HUVECs are incubated with either vehicle, HGF/SF, instant compounds, or SNAP for 24 hours, loaded with the nitric oxide-sensitive fluorescence indicator DAF2-DA and imaged under a laser scanning confocal microscope.

MDCK cells = assay: Anti-apoptotic activity in cultured cell lines (adriamycin-induced apoptosis); format: cell-based
Text: a. HGF/SF and instant compounds have significant anti-apoptotic activity in cultured cell lines.

[1] = test system: LX2 cells (an immortalized human hepatic stellate cell line); assay: Antifibrotic activity in hepatic stellate cells; format: cell-based; settings: serum starved (activated) LX2 cells
Text: a. Antifibrotic Activity in Hepatic Stellate Cells.

[2] = test system: NIH-3T3 cells transfected with the gene for the c-met receptor; assay: Protection from apoptosis in NIH-3T3 cells transfected with c-met receptor (MTT assay); format: cell-based
Text: b. Protection from apoptosis in NIH-3T3 cells transfected with c-met receptor.

Molecule	Nitric oxide production (DAF2-DA fluorescence) (HUVECs)	Adriamycin-induced apoptosis (MDCK cells; MDCK cells)	Cell viability (MDCK cells; pretreatment, HUVEC and MDCK cell lines)	Collagen I mRNA expression [1]	Protection from adriamycin-induced apoptosis (MTT assay) [2]
CC(=O)N[C@@H](C(=O)O)C(C)(C)SN=O (racemic) [SNAP, reference compound]	significant increase in fluorescence	–	–	–	–
HGF/SF: pleiotropic growth factor; heparin-binding heterodimeric protein composed of a 62 kDa α chain and a 34 kDa β chain	significant increase in fluorescence	significantly block adriamycin-induced apoptosis	significantly improves the cell viability	decrease in collagen I mRNA expression	protect the cells from adriamycin-induced apoptosis
